The nature of data set [1]: Kinetic solubility in PBS (HPLC solubility assay). Particulars: aqueous buffer, kinetic from dmso stock.
For data set [2], the target named is TLR4 (Homo sapiens, UniProt O00206+Q9Y6Y9). The data set can be described thus: TLR4 NF-κB SEAP reporter assay in HEK-Blue hTLR4 cells. As to conditions: for TLR4 activation at 10 μM, fold increase / TLR4 activation at 100 μM, fold increase: 18 h, NF-κB transcriptional activity (SEAP) relative to 0.1% DMSO; for maximum TLR4 activation: HEK-Blue hTLR4, 21 at 10 μM; for concentration at which compound activated TLR4: dose-response 0.5–10 μM (17–21) or 1–100 μM (27–31). For orientation: In a reporter assay the amount or activity of a reporter protein is the signal.

In data set [3] the target is NOD2 (Homo sapiens, UniProt Q9HC29). The data set can be described thus: NOD2 NF-κB SEAP reporter assay in HEK-Blue hNOD2 cells. As to conditions: for NOD2 activation at 10 μM, fold increase: 18 h, NF-κB transcriptional activity (SEAP) relative to 0.1% DMSO; for NOD2 agonist activity: compared with NOD2 agonist 3 and MDP (4 μM).
Setting [4] is: PBS, Average solubility, Tables S1–S3, average of two samples.
Setting [5] is: PBS, Solubility sample 1, Tables S1–S3, replicate 1.
[6] abbreviates: PBS, Solubility sample 2, Tables S1–S3, replicate 2.
[7] abbreviates: PBS, solubility in PBS, kinetic solubility, HPLC solubility assay.
[8] abbreviates: Average solubility, Tables S1–S3, average of two samples.
Where [9] appears, read: Solubility sample 1, Tables S1–S3, replicate 1.
[10] abbreviates: Solubility sample 2, Tables S1–S3, replicate 2.
Where [11] appears, read: solubility in PBS, kinetic solubility, HPLC solubility assay.

Molecules are shown by their SMILES. In brackets after ≈: the same amount, converted by molar mass.

This note sets out measurements from publication PMC12409580, “Modulating Receptor Activity, Immune Response, and Kinetic Solubility: The Impact of Linker Chemistry in Conjugated NOD2/TLR4 Agonists” (ACS Omega, 2025).

Chain of TLR4 (O00206 24-839): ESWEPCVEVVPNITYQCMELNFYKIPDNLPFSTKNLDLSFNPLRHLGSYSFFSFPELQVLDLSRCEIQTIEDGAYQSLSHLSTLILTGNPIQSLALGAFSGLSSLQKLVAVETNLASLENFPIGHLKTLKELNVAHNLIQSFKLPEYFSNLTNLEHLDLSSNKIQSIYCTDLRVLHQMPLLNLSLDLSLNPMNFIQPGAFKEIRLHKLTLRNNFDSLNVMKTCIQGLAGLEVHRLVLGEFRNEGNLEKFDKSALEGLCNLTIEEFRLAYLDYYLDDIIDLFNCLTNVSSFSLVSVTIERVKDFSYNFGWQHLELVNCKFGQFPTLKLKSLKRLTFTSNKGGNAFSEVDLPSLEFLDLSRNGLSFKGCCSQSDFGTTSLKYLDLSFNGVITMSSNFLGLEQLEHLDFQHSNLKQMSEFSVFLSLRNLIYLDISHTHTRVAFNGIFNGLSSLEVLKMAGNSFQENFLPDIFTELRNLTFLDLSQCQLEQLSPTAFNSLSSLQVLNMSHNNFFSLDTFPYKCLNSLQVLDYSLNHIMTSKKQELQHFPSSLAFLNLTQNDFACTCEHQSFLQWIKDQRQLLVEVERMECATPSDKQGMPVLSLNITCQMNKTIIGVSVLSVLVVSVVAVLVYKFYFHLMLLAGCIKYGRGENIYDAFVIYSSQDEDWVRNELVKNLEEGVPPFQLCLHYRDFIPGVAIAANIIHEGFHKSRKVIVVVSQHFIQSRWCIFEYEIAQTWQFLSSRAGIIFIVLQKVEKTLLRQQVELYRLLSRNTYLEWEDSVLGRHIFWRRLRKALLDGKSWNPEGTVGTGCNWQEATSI
Chain of TLR4 (Q9Y6Y9 17-160 limits assumed): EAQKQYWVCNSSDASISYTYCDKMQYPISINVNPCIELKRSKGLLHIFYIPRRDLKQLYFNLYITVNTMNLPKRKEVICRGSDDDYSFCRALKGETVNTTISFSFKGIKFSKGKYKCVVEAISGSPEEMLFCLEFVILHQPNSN
Chain of NOD2 (Q9HC29 whole entry): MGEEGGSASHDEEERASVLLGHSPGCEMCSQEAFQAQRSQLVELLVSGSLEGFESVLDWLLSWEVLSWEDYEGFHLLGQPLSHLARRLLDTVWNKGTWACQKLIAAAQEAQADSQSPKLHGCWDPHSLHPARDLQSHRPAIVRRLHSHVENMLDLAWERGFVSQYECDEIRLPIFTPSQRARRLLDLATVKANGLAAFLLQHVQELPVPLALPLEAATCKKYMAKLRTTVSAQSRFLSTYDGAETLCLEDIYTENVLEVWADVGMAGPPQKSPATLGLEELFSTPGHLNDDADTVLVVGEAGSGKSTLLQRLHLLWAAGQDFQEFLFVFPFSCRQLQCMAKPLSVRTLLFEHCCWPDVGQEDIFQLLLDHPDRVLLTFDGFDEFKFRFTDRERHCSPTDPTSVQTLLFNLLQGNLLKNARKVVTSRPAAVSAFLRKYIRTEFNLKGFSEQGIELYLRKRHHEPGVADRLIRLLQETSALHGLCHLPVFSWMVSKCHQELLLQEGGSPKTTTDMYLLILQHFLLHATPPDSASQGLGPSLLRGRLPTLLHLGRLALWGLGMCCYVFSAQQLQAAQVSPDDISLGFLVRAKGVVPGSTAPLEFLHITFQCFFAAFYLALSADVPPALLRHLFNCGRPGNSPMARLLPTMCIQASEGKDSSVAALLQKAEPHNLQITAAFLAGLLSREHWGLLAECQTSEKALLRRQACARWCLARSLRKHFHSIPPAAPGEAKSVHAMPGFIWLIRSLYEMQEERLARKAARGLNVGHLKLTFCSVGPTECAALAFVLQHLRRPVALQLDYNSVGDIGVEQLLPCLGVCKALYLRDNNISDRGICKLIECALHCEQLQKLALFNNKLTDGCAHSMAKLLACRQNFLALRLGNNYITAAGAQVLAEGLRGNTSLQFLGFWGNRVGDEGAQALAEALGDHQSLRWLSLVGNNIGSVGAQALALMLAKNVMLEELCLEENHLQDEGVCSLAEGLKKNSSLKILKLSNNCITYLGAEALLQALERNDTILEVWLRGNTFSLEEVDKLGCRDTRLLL

For orientation: solubility means the concentration that dissolves in the medium under given conditions. Read a high solubility as a readily soluble substance. On to `O=C(O)Cc1ccc(C(C(=O)NC2CCCC2)N(C(=O)c2cc(-c3ccccc3)n(-c3ccccc3)n2)c2ccc3c(c2)CCC3)cc1` (centres unmarked) [Compound 4, reference compound], for which the solubility was found to be 238 µM (≈ 152 µg/mL) in data set [1] (setting [4]), 249 µM (≈ 159 µg/mL) in data set [1] (setting [5]), 226 µM (≈ 145 µg/mL) in data set [1] (setting [6]) and 238 µM (≈ 152 µg/mL) in data set [1] (setting [7]). In data set [2] (10 μM), the “TLR4 activation at 10 μM, fold increase” value is 7.23 fold increase. The “maximum TLR4 activation” value in data set [2] worked out at 7.23 fold.

As to `O=C(O)CSc1nc2c([nH]c3ccccc32)c(=O)n1-c1ccccc1` [Compound 6, reference compound], the solubility in data set [1] (setting [4]) came out at 254 µM (≈ 89.3 µg/mL); in data set [1] (setting [5]), 270 µM (≈ 94.8 µg/mL); in data set [1] (setting [6]) it was 238 µM (≈ 83.7 µg/mL); in data set [1] (setting [7]), 254 µM (≈ 89.3 µg/mL). Also, the “TLR4 activation at 10 μM, fold increase” value in data set [2] (10 μM) was found to be 1.22 fold increase. The “TLR4 activation at 100 μM, fold increase” value in data set [2] amounted to 3.10 fold increase. Further, the “maximum TLR4 activation” value in data set [2] is 3.10 fold.

In the case of `CCOC(=O)[C@H](CCC(=O)NCCNC(=O)Cc1ccc(C(C(=O)NC2CCCC2)N(C(=O)c2cc(-c3ccccc3)n(-c3ccccc3)n2)c2ccc3c(c2)CCC3)cc1)NC(=O)[C@@H](NC(=O)CNC(=O)/C=C/c1ccc(O)c(OC)c1)C(C)C` (stereo partly drawn) [Compound 17, Ethyl N ^5-(2-(2-(4-(2-(Cyclopentylamino)-1-(N-(2,3-dihydro-1H-inden-5-yl)-1,5-diphenyl-1H-pyrazole-3-carboxamido)-2-oxoethyl)phenyl)acetamido)ethyl)-N ^2-((E)-3-(4-hydroxy-3-methoxyphenyl)acryloyl)glycyl-L-valyl-D-glutaminate], the solubility in data set [1] (setting [5]) was found to be 0.68 µM (≈ 0.796 µg/mL); in data set [1] (setting [6]) it was 0.83 µM (≈ 0.971 µg/mL); in data set [1] (setting [7]), 0.76 µM (≈ 0.889 µg/mL). The “NOD2 activation at 10 μM, fold increase” value in data set [3] was 3.66 fold increase. Moreover, in data set [3], the “NOD2 agonist activity” value is “comparable efficiency to MDP”. Further, the “TLR4 activation at 10 μM, fold increase” value in data set [2] (10 μM) is listed as 5.10 fold increase. Further, in data set [2], the “concentration at which compound activated TLR4” value (“concentration” for short) came to 1.0 µM.

Consider `CCOC(=O)[C@H](CCC(=O)NCCCCCCNC(=O)Cc1ccc(C(C(=O)NC2CCCC2)N(C(=O)c2cc(-c3ccccc3)n(-c3ccccc3)n2)c2ccc3c(c2)CCC3)cc1)NC(=O)[C@@H](NC(=O)CNC(=O)/C=C/c1ccc(O)c(OC)c1)C(C)C` (stereo partly drawn) [Compound 18, Ethyl N ^5-(6-(2-(4-(2-(Cyclopentylamino)-1-(N-(2,3-dihydro-1H-inden-5-yl)-1,5-diphenyl-1H-pyrazole-3-carboxamido)-2-oxoethyl)phenyl)acetamido)hexyl)-N ^2-((E)-3-(4-hydroxy-3-methoxyphenyl)acryloyl)glycyl-L-valyl-D-glutaminate], for which the solubility in data set [1] (setting [5]) was determined as 0.85 µM (≈ 1.04 µg/mL); in data set [1] (setting [6]) it was 1.17 µM (≈ 1.43 µg/mL); in data set [1] (setting [7]), 1.01 µM (≈ 1.24 µg/mL). Besides, in data set [3], the “NOD2 activation at 10 μM, fold increase” value amounted to 2.43 fold increase. In addition, in data set [2] (10 μM), the “TLR4 agonism” value is “weak TLR4 agonism”. For the same compound, the “TLR4 activation at 10 μM, fold increase” value in data set [2] (10 μM) amounted to 1.46 fold increase.

`CCOC(=O)[C@H](CCC(=O)NCCOCCOCCNC(=O)Cc1ccc(C(C(=O)NC2CCCC2)N(C(=O)c2cc(-c3ccccc3)n(-c3ccccc3)n2)c2ccc3c(c2)CCC3)cc1)NC(=O)[C@H](NC(=O)CNC(=O)/C=C/c1ccc(O)c(OC)c1)C(C)C` (stereo partly drawn) [Compound 19, Ethyl (16S)-1-(4-(2-(Cyclopentylamino)-1-(N-(2,3-dihydro-1H-inden-5-yl)-1,5-diphenyl-1H-pyrazole-3-carboxamido)-2-oxoethyl)phenyl)-16-((R)-2-(2-((E)-3-(4-hydroxy-3-methoxyphenyl)acrylamido)acetamido)-3-methylbutanamido)-2,13-dioxo-6,9-dioxa-3,12-diazaheptadecan-17-oate]: the results for the solubility in data set [1] (setting [5]), in data set [1] (setting [6]) and in data set [1] (setting [7]) were 2.59 µM (≈ 3.26 µg/mL), 1.68 µM (≈ 2.11 µg/mL) and 2.14 µM (≈ 2.69 µg/mL), respectively. Also, the “NOD2 activation at 10 μM, fold increase” value in data set [3] came out at 3.06 fold increase. In addition, the “TLR4 activation at 10 μM, fold increase” value in data set [2] (10 μM) is given as 2.78 fold increase. For the same compound, the “concentration” value in data set [2] is 5 µM.

With `CCOC(=O)[C@@H](CCC(=O)NCCCOCCOCCOCCCNC(=O)Cc1ccc(C(C(=O)NC2CCCC2)N(C(=O)c2cc(-c3ccccc3)n(-c3ccccc3)n2)c2ccc3c(c2)CCC3)cc1)NC(=O)[C@@H](NC(=O)CNC(=O)/C=C/c1ccc(O)c(OC)c1)C(C)C` (stereo partly drawn) [Compound 20, Ethyl (21R)-1-(4-(2-(Cyclopentylamino)-1-(N-(2,3-dihydro-1H-inden-5-yl)-1,5-diphenyl-1H-pyrazole-3-carboxamido)-2-oxoethyl)phenyl)-21-((S)-2-(2-((E)-3-(4-hydroxy-3-methoxyphenyl)acrylamido)acetamido)-3-methylbutanamido)-2,18-dioxo-7,10,13-trioxa-3,17-diazadocosan-22-oate], the solubility in data set [1] (setting [5]) was determined as 1.61 µM (≈ 2.14 µg/mL); in data set [1] (setting [6]), 1.38 µM (≈ 1.84 µg/mL); in data set [1] (setting [7]) it was 1.5 µM (≈ 2 µg/mL). Besides, in data set [3], the “NOD2 activation at 10 μM, fold increase” value is 3.53 fold increase. Besides, in data set [3], the “NOD2 agonist activity” value is “comparable efficiency to MDP”. Also, in data set [2] (10 μM), the “TLR4 activation at 10 μM, fold increase” value was found to be 2.68 fold increase. The “concentration” value in data set [2] is 5 µM.

For the compound `CCOC(=O)[C@H](CCC(=O)NCCNC(=O)CSc1nc2c([nH]c3ccccc32)c(=O)n1-c1ccccc1)NC(=O)[C@H](NC(=O)CNC(=O)/C=C/c1ccc(O)c(OC)c1)C(C)C` [Compound 27, Ethyl N ^2-((E)-3-(4-Hydroxy-3-methoxyphenyl)acryloyl)glycyl-D-valyl-N ^5-(2-(2-((4-oxo-3-phenyl-4,5-dihydro-3H-pyrimido[5,4-b]indol-2-yl)thio)acetamido)ethyl)-L-glutaminate], the solubility in data set [1] (setting [8]) was 310 µM (≈ 274 µg/mL); in data set [1] (setting [9]) it was 322 µM (≈ 284 µg/mL); in data set [1] (setting [10]), 298 µM (≈ 264 µg/mL); in data set [1] (setting [11]), 310 µM (≈ 274 µg/mL). In addition, the “NOD2 activation at 10 μM, fold increase” value in data set [3] turned out to be 2.17 fold increase. The “TLR4 activation at 10 μM, fold increase” value in data set [2] (10 μM) was found to be 1.06 fold increase. For the same compound, the “TLR4 activation at 100 μM, fold increase” value in data set [2] is on record as 2.60 fold increase.

For the compound `CCOC(=O)[C@H](CCC(=O)NCCCCCCNC(=O)CSc1nc2c([nH]c3ccccc32)c(=O)n1-c1ccccc1)NC(=O)[C@H](NC(=O)CNC(=O)/C=C/c1ccc(O)c(OC)c1)C(C)C` [Compound 28, Ethyl N ^2-((E)-3-(4-Hydroxy-3-methoxyphenyl)acryloyl)glycyl-D-valyl-N ^5-(6-(2-((4-oxo-3-phenyl-4,5-dihydro-3H-pyrimido[5,4-b]indol-2-yl)thio)acetamido)hexyl)-L-glutaminate], the solubility in data set [1] (setting [8]) was found to be 80 µM (≈ 75.1 µg/mL); in data set [1] (setting [9]), 115 µM (≈ 108 µg/mL); in data set [1] (setting [10]), 80.7 µM (≈ 75.8 µg/mL); in data set [1] (setting [11]), 80 µM (≈ 75.1 µg/mL). Besides, in data set [3], the “NOD2 activation at 10 μM, fold increase” value is 1.65 fold increase. Also, the “TLR4 activation at 10 μM, fold increase” value in data set [2] (10 μM) was determined as 1.06 fold increase. The “TLR4 activation at 100 μM, fold increase” value in data set [2] was 1.72 fold increase.
